According to publication PMC4409337, “Immucillins Impair Leishmania (L.) infantum chagasi and Leishmania (L.) amazonensis Multiplication In Vitro” (PLoS ONE, 2015):
pEC50, pIC50, pKi: −log10 of the molar value. Read-outs that look alike come from different tables or passages of the source.

Tests used:
[1] = target: T1, Nucleoside hydrolase NH36 (Leishmania donovani, UniProt Q8WQX2); assay: Ki determination: inhibition of NH36 activity by immucillins; format: biochemical, Leishmania (L.) donovani; conditions: 10 mM inosine as substrate, 0.5 nM NH36, pH 7.4, room temperature
T1 sequence (Q8WQX2 1-314): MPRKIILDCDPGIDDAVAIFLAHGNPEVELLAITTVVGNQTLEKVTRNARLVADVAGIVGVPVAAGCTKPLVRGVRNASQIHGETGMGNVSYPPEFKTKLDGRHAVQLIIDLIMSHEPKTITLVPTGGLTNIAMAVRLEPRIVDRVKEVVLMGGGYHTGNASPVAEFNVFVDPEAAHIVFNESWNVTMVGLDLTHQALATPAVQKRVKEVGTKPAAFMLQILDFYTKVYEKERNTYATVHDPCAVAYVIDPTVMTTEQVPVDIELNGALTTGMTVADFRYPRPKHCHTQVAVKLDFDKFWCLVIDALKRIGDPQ
Experimental: (§1) BL21DE3 E.coli were transformed with the synthetic plasmid pET 28b encoding the gene of NH36 of Leishmania (L.) donovani (EMBL, Genbank and DDJB data bases, access number AY007193) with a His6tag at the C-terminal. Expression was induced with 0.5 mM IPTG and overnight incubation at 20°C. Purification of NH36 was performed on a column of Ni-NTA Superflow resin (Qiagen, USA) eluted by a stepwise imidazole gradient and monitored by SDS-polyacrylamide gel electrophoresis and protein assay. The extinction coefficient of NH36 is 21.437 mM^-1 cm^-1 at 280 nm, as calculated with the ProtParam program from ExPASy, and was used to estimate protein concentration (http://ca.expasy.org/seqanalref/). The yield of NH36 after purification was 11.87 mg per Liter of bacterial growth culture. Non-specific His-proteins with weak interactions were eluted with 50–100 mM imidazole (S1 Fig). The purified NH36 started to elute with 150 mM imidazole. We used 250 mM of imidazol in elution buffer for purification of NH36.
The reaction mixtures contained 10 mM inosine as substrate, 50 mM Hepes (pH 7.4), 100 mM KCl, 5 mM DTT and 1 unit XOD. The hydrolysis of inosine to hypoxanthine and ribose was followed by continuous reading of optical absorbance at 293 nm, using variable concentrations of inhibitors in a CARY 300UV-visible spectrophotometer. Controls without enzyme and without inhibitors were included in all inhibition assays. The inhibition constant for each immucillin was obtained, using GraFit 5 (Erithacus Software), by fitting initial rates with variable inhibitor concentrations to the equation (vi/v0 = [S] / Km + [S] + Km[I] / Ki), where v i is the initial rate in the presence of the inhibitor, v 0 is the initial rate in the absence of the inhibitor, K m is the Michaelis constant for inosine, [S] and [I] are inosine and inhibitor concentrations, respectively, and Ki is the inhibition constant.

[2] = system: L. (L.) infantum chagasi promastigotes; assay: In vitro growth of promastigotes in FBS supplemented Schneider's insect medium; format: cell-based, Leishmania (L.) infantum chagasi; conditions: Leishmania infantum; for inhibition at 500 µM: after 96 h of culture, read-out: percent inhibition on L. (L.) infantum chagasi promastigote growth
Description: The strain of Leishmania (L.) infantum chagasi MHOM/BR/1974/PP75 was obtained from the Leishmania Type Culture Collection (Fundacão Oswaldo Cruz, Rio de Janeiro, RJ, Brazil) and the strain of Leishmania (L.) amazonensis (MHOM/BR/1975/Josefa) was kindly given by Professor Rosâ[…] from Universidade Federal do Rio de Janeiro. Promastigotes were maintained by weekly transfers in screw-capped glass tubes containing Schneider's insect medium (Sigma Aldrich, MO, USA), pH 7.0, supplemented with 10% Fetal Bovine Serum (FBS) at 26°C. […] Log phase promastigotes of L. (L.) infantum chagasi and L. […] Promastigotes were recorded in a Neubauer chamber after 24, 48, 72 and 96 hours of incubation at 26°C. […] The concentration of adenosine in Schneider s insect serum supplemented medium was assessed by HPLC using a C-18 reverse-phase column as described.

[3] = system: L. (L.) amazonensis promastigotes; assay: as above; format: cell-based, Leishmania (L.) amazonensis; conditions: Leishmania amazonensis; for pIC50: read-out: IC50 (CI 95%) on L. (L.) amazonensis promastigotes in vitro growth; for inhibition at 500 µM: read-out: percent inhibition on L. (L.) amazonensis replication
Description: The strain of Leishmania (L.) infantum chagasi MHOM/BR/1974/PP75 was obtained from the Leishmania Type Culture Collection (Fundacão Oswaldo Cruz, Rio de Janeiro, RJ, Brazil) and the strain of Leishmania (L.) amazonensis (MHOM/BR/1975/Josefa) was kindly given by Professor Rosâ[…] from Universidade Federal do Rio de Janeiro. Promastigotes were maintained by weekly transfers in screw-capped glass tubes containing Schneider's insect medium (Sigma Aldrich, MO, USA), pH 7.0, supplemented with 10% Fetal Bovine Serum (FBS) at 26°C. Stock solutions (20 mM) of immucillins IA […] prepared using Milli-Q purified water. Log phase promastigotes of L. (L.) infantum chagasi and L. […] Promastigotes were recorded in a Neubauer chamber after 24, 48, 72 and 96 hours of incubation at 26°C. […] We also assayed the possibility of reversing the inhibitory effect of IA in RPMI medium by the addition of adenosine to the culture medium. The concentration of adenosine in Schneider s insect serum supplemented medium was assessed by HPLC using a C-18 reverse-phase column as described.

[4] = system: intracellular amastigotes of L. (L.) infantum chagasi; conditions: ref 44; read-out: IC50 against intracellular amastigotes; cited from earlier work
[5] = system: Nucleoside hydrolase NH36 of L. (L.) donovani; format: biochemical, Leishmania (L.) donovani; conditions: substrate of NH36; for k cat /K m: catalytic efficiency; for K m / k cat: 25°C, 50 mM Hepes pH 7.4
Experimental: as §1
Steady-state kinetic rates for NH36 were determined on the substrates inosine, guanosine, adenosine, uridine and cytidine. Hypoxanthine and adenine formation were coupled to xanthine oxidase (12.9 mM^-1 cm^-1 at 293 nm and 15.2 mM^-1 cm^-1 at 305 nm, respectively), and the others were followed by direct uv absorbance changes resulting from cleavage of the N-ribosidic bond. Reaction mixtures contained 50 mM Hepes (pH 7.4), 100 mM NaCl and 5 mM of DTT. One unit, and 0.1 unit of xanthine oxidase (XOD) were used as the coupling enzyme to the adenosine and inosine assays, respectively. Spectral changes for hydrolysis of guanosine, uridine and cytidine were 5.4 mM^-1 cm^-1 at 257 nm,1.8 mM^-1 cm^-1 at 280 nm and 1.8 mM^-1 cm^-1 at 288 nm, respectively. Variable concentrations of substrate and appropriate amounts of purified NH36 were added in all assays. The hydrolysis of nucleosides to bases and ribose was followed by continuous recording of optical absorbance after addition of the enzyme, in a CARY 300 UV-visible spectrophotometer. Control rates with no enzyme addition were subtracted from initial rates. Reactions with substrates were conducted at 25°C using 1 cm path length cuvettes containing 1 mL reaction volumes. Kinetic parameters of NH36 were obtained by fitting initial rates to the Michaelis−Menten equation using GraFit 5 (Erithacus Software).

NH of L. (L.) major = system: NH of L. (L.) major; design: method as in PMID 10409664; conditions: unit inferred; cited from earlier work
[6] = system: L. (L.) infantum chagasi promastigotes; assay: Transmission electron microscopy of treated promastigotes; format: cell-based, Leishmania (L.) infantum chagasi; conditions: 10 μM, 72 h
Description: The cells were washed with Milli Q water, dehydrated in increasing concentration of acetone and embedded in Epon (1: 1) (PolyBed 812). The ultrathin sections were obtained, contrasted with 5% uranyl acetate and lead citrate and observed under a Joel 1200 electron microscope.

in vitro = conditions: female, BALB/c, mouse
Experimental: (§2) Alternatively, the immucillins were added at 0, 24 and 48 h and viability assessed after 72h. […] The amastigote growth was assessed 24 h after the last drug addition, on 200 cells in Giemsa stained coverslips and expressed as phagocytic index = percent of infected macrophages x average number of intracellular amastigotes. […] All experiments with mice were reviewed and approved by the Animal Care and Use Committee of the Instituto de Biofísica Carlos Chagas Fo.-UFRJ (CAUAP-CONCEA, Brazil, IMPPG-016) and were performed according to the guidelines of the National Institutes of Health, USA. We made all efforts in order to minimize animal suffering.

[7] = system: intracellular amastigotes of L. (L.) infantum chagasi; assay: Replication of intracellular amastigotes in infected peritoneal macrophages (phagocytic index); format: cell-based, Leishmania (L.) infantum chagasi
Experimental: as §2, with “Alternatively, the immucillins were added at 0, 24 and 48 h and viability assessed after 72h.” left out

[8] = single addition at 0 h, evaluated after 48 hours, 26°C, read-out: IC50 (CI 95%) on L. (L.) infantum chagasi promastigotes in vitro growth
[9] = single addition at 0 h, evaluated after 48 hours, 26°C

Row | pKi [1] | Structure (SMILES) | pIC50 [2, 8] | inhibition at 500 µM [2] [%] | pIC50 [3, 9] | pIC50 [4] | inhibition at 500 µM ([3]; 500 μM, after 96 h of culture) [%] | also measured
1 | 5.74 | Nc1nc2c(CNC(CO)CO)c[nH]c2c(=O)[nH]1 [SMIG] | 4.59 | 70 | 4.53 | – | – | –
2 | – | NC[C@@H]1O[C@H](O[C@H]2[C@@H](O)[C@H](O[C@@H]3[C@@H](O)[C@H](N)C[C@H](N)[C@H]3O[C@H]3O[C@H](CO)[C@@H](O)[C@H](O)[C@H]3N)O[C@@H]2CO)[C@H](N)[C@@H](O)[C@@H]1O [Paramomycin] | – | – | – | 3.47 | – | –
3 | < 5.30 | Nc1nc2c(CN3C[C@H](CO)[C@@H](O)C3)c[nH]c2c(=O)[nH]1 [DIG] | 4.63 | 68 | 4.40 | – | 67 | –
4 | – | Nc1ncnc2c1ncn2[C@@H]1O[C@H](CO)[C@@H](O)[C@H]1O [Adenosine] | – | – | – | – | – | k cat /K m [5]: 53000 M⁻¹ s⁻¹; K m [5]: 70 ± 30 µM; k cat [5]: 3.7 ± 0.1 s ^-1; k cat (NH of L. (L.) major): 0.57 s⁻¹
5 | < 5.30 | Nc1ncnc2c(CN3C[C@H](CO)[C@@H](O)C3)c[nH]c12 [DIA] | 3.96 | 69 | – | – | 16 | –
6 | – | C[C@@H]1[C@H](O)[C@@H](C)/C=C/C=C/C=C/C=C/C=C/C=C/C=C/[C@H](O[C@@H]2O[C@H](C)[C@@H](O)[C@H](N)[C@@H]2O)C[C@@H]2O[C@](O)(C[C@@H](O)C[C@@H](O)[C@H](O)CC[C@@H](O)C[C@@H](O)CC(=O)O[C@H]1C)C[C@H](O)[C@H]2C(=O)O [Amphotericin] | – | – | – | 7.40 | – | –
7 | < 5.30 | Nc1ncnc2c(CNC(CO)CO)c[nH]c12 [SMIA] | 3.46 | 71 | 3.80 | – | 71 | –
8 | – | Nc1ccn([C@@H]2O[C@H](CO)[C@@H](O)[C@H]2O)c(=O)n1 [Cytidine] | – | – | – | – | – | k cat /K m [5]: 9300 M⁻¹ s⁻¹; K m [5]: 1,403 ± 282 μM; k cat [5]: 13.1 ± 1.1 s ^-1; k cat (NH of L. (L.) major): 0.36 s⁻¹
9 | – | CC[C@H]1OC(=O)[C@H](C)[C@@H](O[C@H]2C[C@@](C)(OC)[C@@H](O)[C@H](C)O2)[C@H](C)[C@@H](O[C@@H]2O[C@H](C)C[C@H](N(C)C)[C@H]2O)[C@](C)(O)C[C@@H](C)CN(C)[C@H](C)[C@@H](O)[C@]1(C)O [Azitromycin] | – | – | – | 4.70 | – | –
10 | – | Nc1nc2c(ncn2[C@@H]2O[C@H](CO)[C@@H](O)[C@H]2O)c(=O)[nH]1 [Guanosine] | – | – | – | – | – | k cat /K m [5]: 1200 M⁻¹ s⁻¹; K m [5]: 380 ± 153 µM; k cat [5]: 0.47 ± 0.1 s ^-1
11 | < 5.30 | O=c1[nH]cnc2c(CN3C[C@H](CO)[C@@H](O)C3)c[nH]c12 [DIH] | 5.74 | 89 | 5.47 | – | 89 | –
12 | – | CCCCCCCCCCCCCCCCOP(=O)([O-])OCC[N+](C)(C)C [Miltefosine] | – | – | – | 5.36 | – | –

Row | Structure (SMILES) | pKi [1] | pIC50 [2, 8] | inhibition at 500 µM [2] [%] | pIC50 [3, 9] | pIC50 [4] | inhibition at 500 µM ([3]; 500 μM, after 96 h of culture) [%] | also measured
13 | O=c1[nH]cnc2c([C@@H]3N[C@H](CO)[C@@H](O)[C@H]3O)c[nH]c12 [IH] | 7.72 | – | – | – | – | – | pIC50 ([2]; read-out: IC50 (CI 95%) on L. (L.) infantum chagasi promastigotes in vitro growth, single addition at 0 h, evaluated after 48 hours, 26°C): 4.51; pIC50 ([2]; read-out: IC50 on promastigote growth, daily addition, drugs added at 0, 24 and 48 h, after 48h): 5.17; pIC50 ([2]; read-out: IC50 on promastigote growth, daily addition, drugs added at 0, 24 and 48 h, at 72 and 96 h): > 7.30; inhibition at 500 µM ([3]; 96 h): 71%; pIC50 [3]: 4.30; effect on cellular ultrastructure of promastigotes [6]: alterations and swelling of kinetoplasts; CC50 at 48 h (in vitro): 950 µM; reduction in the number of intracellular amastigotes ([7]; 10 μM added daily at 0, 24 and 48 h): 95%; pEC50 ([7]; Leishmania infantum, Peritoneal macrophage, read-out: EC50 (CI 95%)): 5.43; decrease of intracellular amastigote parasite load ([7]; low micromolar concentrations, single to daily protocol): 74–95%; reduction in the number of intracellular amastigotes ([7]; single 10 μM dose at 0 h, compared to untreated controls): 70%
